Source: the kinase profiling compilation of Christmann-Franck et al. (2016)

Tests used:
Assay in all cases: KINOMEscan competition binding
Conditions in all cases: compound 10.0 µM
MAPK1 (human) = MAPK1 (human) (UniProt P28482)
[1] = test system: ABL1 (human), P00519 [T315I]
CSNK1A1L (human) = CSNK1A1L (human) (UniProt Q8N752)
ACVR1B (human) = ACVR1B (human) (UniProt P36896)
STK32C (human) = STK32C (human) (UniProt Q86UX6)
TNNI3K (human) = TNNI3K (human) (UniProt Q59H18)
STK38L (human) = STK38L (human) (UniProt Q9Y2H1)
PRKX (human) = PRKX (human) (UniProt P51817)
Chain of PRKX (human) (P51817 whole entry, looked up): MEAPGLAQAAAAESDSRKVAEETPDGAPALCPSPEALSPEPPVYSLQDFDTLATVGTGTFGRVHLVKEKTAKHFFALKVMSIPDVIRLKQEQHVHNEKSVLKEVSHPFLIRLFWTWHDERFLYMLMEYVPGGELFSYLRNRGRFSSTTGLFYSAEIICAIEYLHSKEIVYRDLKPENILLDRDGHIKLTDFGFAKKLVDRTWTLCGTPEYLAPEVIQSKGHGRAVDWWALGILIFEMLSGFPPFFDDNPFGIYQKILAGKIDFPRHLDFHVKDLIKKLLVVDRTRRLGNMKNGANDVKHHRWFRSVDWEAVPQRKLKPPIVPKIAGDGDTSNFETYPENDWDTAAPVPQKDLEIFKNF

STK36 (human) = STK36 (human) (UniProt Q9NRP7)
Chain of STK36 (human) (Q9NRP7 whole entry, looked up): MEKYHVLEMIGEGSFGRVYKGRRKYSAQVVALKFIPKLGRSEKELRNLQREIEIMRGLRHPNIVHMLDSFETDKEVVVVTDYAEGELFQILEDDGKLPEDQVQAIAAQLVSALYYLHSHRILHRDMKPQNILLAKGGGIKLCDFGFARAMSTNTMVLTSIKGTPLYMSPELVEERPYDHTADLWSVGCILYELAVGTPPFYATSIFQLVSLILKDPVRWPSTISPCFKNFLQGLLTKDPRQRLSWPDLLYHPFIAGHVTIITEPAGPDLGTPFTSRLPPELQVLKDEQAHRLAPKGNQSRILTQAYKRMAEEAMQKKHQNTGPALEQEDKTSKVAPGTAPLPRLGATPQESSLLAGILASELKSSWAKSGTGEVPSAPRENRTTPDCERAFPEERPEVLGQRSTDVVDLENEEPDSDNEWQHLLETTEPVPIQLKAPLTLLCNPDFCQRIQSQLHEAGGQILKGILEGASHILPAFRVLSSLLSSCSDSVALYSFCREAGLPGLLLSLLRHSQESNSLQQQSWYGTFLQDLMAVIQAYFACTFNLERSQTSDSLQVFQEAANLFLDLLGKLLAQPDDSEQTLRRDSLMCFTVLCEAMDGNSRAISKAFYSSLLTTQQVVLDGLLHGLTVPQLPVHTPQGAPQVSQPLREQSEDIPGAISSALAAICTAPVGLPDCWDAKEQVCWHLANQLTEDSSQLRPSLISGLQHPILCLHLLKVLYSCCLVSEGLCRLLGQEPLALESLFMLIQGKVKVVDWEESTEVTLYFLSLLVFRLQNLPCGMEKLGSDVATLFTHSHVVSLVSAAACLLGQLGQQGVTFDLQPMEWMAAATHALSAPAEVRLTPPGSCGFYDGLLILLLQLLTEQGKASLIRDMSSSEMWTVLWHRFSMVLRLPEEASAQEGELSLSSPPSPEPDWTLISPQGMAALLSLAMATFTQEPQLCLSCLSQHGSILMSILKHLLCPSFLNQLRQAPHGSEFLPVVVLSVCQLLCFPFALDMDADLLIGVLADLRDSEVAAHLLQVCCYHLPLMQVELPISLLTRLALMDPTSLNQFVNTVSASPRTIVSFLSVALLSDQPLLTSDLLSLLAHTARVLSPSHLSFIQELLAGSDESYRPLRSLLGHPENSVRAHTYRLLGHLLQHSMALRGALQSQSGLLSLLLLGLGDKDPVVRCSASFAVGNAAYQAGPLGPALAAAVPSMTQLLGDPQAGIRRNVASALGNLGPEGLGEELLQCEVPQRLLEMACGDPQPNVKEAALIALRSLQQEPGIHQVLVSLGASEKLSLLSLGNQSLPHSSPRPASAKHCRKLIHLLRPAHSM

PRKG1 (human) = PRKG1 (human) (UniProt Q13976)
CDK8 (human) = CDK8 (human) (UniProt P49336)
Chain of CDK8 (human) (P49336 whole entry, looked up): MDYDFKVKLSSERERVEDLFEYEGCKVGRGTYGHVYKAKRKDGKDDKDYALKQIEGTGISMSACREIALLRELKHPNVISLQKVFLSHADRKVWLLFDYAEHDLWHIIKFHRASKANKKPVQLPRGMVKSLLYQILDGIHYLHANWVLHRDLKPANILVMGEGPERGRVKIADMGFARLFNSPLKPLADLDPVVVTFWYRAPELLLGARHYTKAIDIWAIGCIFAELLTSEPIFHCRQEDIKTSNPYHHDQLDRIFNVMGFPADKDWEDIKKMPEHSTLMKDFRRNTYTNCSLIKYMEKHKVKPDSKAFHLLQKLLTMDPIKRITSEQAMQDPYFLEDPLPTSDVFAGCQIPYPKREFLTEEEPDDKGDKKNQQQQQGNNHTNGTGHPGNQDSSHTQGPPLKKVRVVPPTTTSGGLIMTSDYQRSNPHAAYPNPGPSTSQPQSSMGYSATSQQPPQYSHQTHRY

ERBB2 (human) = ERBB2 (human) (UniProt P04626)
PRKD2 (human) = PRKD2 (human) (UniProt Q9BZL6)
MAPK9 (human) = MAPK9 (human) (UniProt P45984)
TESK1 (human) = TESK1 (human) (UniProt Q15569)
ANKK1 (human) = ANKK1 (human) (UniProt Q8NFD2)
MAP2K1 (human) = MAP2K1 (human) (UniProt Q02750)
Chain of MAP2K1 (human) (Q02750 whole entry, looked up): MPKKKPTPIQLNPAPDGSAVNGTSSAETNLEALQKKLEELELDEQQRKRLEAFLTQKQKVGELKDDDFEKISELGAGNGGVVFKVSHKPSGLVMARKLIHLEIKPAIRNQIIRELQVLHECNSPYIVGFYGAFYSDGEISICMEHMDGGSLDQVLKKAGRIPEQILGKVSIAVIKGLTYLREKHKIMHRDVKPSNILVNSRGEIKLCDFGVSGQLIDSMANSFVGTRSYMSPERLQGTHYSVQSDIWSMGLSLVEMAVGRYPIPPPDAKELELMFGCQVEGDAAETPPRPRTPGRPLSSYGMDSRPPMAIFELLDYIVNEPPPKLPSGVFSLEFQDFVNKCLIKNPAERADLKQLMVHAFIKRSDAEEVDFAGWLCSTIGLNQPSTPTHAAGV

MYLK2 (human) = MYLK2 (human) (UniProt Q9H1R3)
Chain of MYLK2 (human) (Q9H1R3 whole entry, looked up): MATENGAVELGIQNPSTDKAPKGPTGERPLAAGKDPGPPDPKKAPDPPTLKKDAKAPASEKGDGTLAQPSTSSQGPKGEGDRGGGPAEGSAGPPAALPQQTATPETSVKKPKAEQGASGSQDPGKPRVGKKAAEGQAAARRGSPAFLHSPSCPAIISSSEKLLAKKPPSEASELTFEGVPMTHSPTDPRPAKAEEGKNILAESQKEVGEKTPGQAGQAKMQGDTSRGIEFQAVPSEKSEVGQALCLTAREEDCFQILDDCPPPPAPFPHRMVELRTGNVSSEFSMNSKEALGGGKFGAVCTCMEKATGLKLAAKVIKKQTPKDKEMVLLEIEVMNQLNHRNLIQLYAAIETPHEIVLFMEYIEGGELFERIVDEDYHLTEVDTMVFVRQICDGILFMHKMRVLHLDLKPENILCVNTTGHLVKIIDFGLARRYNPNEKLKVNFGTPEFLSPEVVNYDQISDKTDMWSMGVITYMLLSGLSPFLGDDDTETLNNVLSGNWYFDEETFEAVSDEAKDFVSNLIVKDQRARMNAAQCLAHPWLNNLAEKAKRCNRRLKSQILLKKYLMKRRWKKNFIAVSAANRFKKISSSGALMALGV

FGFR1 (human) = FGFR1 (human) (UniProt P11362)
STK10 (human) = STK10 (human) (UniProt O94804)
MAP3K3 (human) = MAP3K3 (human) (UniProt Q99759)
PAK4 (human) = PAK4 (human) (UniProt O96013)
[2] = test system: EGFR (human), P00533 [L858R]
SIK2 (human) = SIK2 (human) (UniProt Q9H0K1)
EPHB4 (human) = EPHB4 (human) (UniProt P54760)
TSSK1B (human) = TSSK1B (human) (UniProt Q9BXA7)
SGK110 (human) = SGK110 (human) (UniProt P0C264)
NEK1 (human) = NEK1 (human) (UniProt Q96PY6)
DDR1 (human) = DDR1 (human) (UniProt Q08345)
Chain of DDR1 (human) (Q08345 whole entry, looked up): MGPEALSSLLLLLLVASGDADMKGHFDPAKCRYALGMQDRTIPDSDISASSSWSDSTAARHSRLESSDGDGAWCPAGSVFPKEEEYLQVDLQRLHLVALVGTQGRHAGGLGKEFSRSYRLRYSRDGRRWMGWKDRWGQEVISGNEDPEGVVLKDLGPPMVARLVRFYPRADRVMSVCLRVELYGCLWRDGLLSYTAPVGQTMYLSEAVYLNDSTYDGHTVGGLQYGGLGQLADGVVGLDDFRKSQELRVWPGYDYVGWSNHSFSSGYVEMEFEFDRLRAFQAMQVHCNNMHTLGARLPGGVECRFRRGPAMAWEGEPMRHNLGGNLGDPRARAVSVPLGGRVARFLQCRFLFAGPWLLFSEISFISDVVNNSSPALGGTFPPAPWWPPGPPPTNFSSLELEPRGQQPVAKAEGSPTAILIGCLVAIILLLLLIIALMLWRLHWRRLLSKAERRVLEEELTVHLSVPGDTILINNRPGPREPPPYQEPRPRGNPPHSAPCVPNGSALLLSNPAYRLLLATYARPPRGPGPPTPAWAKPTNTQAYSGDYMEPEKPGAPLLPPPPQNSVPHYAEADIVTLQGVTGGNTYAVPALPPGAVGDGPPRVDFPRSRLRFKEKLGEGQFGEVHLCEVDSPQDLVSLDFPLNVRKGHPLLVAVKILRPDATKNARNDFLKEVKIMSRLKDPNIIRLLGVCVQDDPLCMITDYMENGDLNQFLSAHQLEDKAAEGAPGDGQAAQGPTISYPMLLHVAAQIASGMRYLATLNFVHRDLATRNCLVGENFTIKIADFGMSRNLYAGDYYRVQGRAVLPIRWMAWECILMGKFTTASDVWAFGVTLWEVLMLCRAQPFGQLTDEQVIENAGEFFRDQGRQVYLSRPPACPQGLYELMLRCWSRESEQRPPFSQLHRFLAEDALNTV

MLTK (human) = MLTK (human) (UniProt Q9NYL2)
LCK (human) = LCK (human) (UniProt P06239)
Chain of LCK (human) (P06239 whole entry, looked up): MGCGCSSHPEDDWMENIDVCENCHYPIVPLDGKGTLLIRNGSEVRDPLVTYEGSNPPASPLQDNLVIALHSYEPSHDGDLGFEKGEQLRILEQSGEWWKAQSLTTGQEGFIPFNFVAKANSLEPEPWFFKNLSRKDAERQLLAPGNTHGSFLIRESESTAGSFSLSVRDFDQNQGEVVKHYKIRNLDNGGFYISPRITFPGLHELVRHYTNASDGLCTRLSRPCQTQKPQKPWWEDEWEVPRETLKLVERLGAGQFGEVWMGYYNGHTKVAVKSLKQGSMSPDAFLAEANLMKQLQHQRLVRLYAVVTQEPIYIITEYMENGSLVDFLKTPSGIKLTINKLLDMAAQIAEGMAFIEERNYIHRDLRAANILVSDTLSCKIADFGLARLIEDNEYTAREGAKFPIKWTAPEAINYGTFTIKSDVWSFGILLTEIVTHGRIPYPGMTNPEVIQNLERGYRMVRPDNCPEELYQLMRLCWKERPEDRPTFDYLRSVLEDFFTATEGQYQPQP

MARK2 (human) = MARK2 (human) (UniProt Q7KZI7)
[3] = test system: ABL1 (human), P00519 [Q252H]
[4] = target: JAK1 JH1 catalytic (human) (UniProt P23458)
MST4 (human) = MST4 (human) (UniProt Q9P289)
CDC42BPA (human) = CDC42BPA (human) (UniProt Q5VT25)
MARK4 (human) = MARK4 (human) (UniProt Q96L34)
FGFR2 (human) = FGFR2 (human) (UniProt P21802)
TLK2 (human) = TLK2 (human) (UniProt Q86UE8)
AKT3 (human) = AKT3 (human) (UniProt Q9Y243)
Chain of AKT3 (human) (Q9Y243 whole entry, looked up): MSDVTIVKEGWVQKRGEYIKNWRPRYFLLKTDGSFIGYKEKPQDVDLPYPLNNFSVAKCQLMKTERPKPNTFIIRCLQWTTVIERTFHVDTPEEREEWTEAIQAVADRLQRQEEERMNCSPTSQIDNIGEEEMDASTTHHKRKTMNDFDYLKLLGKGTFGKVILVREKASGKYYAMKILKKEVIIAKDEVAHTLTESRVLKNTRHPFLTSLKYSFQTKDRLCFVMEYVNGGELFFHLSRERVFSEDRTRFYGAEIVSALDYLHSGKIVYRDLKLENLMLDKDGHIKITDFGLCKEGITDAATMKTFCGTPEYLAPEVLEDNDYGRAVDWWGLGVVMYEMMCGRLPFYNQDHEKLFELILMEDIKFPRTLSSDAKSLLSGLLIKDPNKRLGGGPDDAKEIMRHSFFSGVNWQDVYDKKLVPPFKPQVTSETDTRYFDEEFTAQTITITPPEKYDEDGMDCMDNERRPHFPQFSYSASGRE

EPHA5 (human) = EPHA5 (human) (UniProt P54756)
TNK2 (human) = TNK2 (human) (UniProt Q07912)

With `COc1cc(N2CCN(C)CC2)ccc1Nc1ncc2c(n1)Nc1ccccc1NC2=O` the kinase still bound, per cent of control (MAPK1 (human)) was 94%, the kinase still bound, per cent of control [1] was 46% and the kinase still bound, per cent of control (CSNK1A1L (human)) was 100%. The kinase still bound, per cent of control (ACVR1B (human)) was 100%, the kinase still bound, per cent of control (STK32C (human)) was 100% and the kinase still bound, per cent of control (TNNI3K (human)) was 87%. The kinase still bound, per cent of control (STK38L (human)) was 100%, the kinase still bound, per cent of control (PRKX (human)) was 100% and the kinase still bound, per cent of control (STK36 (human)) was 64%. For the same molecule, the kinase still bound, per cent of control (PRKG1 (human)) was 100%, the kinase still bound, per cent of control (CDK8 (human)) was 55% and the kinase still bound, per cent of control (ERBB2 (human)) was 5%. The kinase still bound, per cent of control (PRKD2 (human)) was 100%, the kinase still bound, per cent of control (MAPK9 (human)) was 69% and the kinase still bound, per cent of control (TESK1 (human)) was 100%. It also gave a kinase still bound, per cent of control (ANKK1 (human)) of 82%, a kinase still bound, per cent of control (MAP2K1 (human)) of 71% and a kinase still bound, per cent of control (MYLK2 (human)) of 69%. For the same molecule, the kinase still bound, per cent of control (FGFR1 (human)) was 80%, the kinase still bound, per cent of control (STK10 (human)) was 100% and the kinase still bound, per cent of control (MAP3K3 (human)) was 86%. For the same molecule, the kinase still bound, per cent of control (PAK4 (human)) was 94%, the kinase still bound, per cent of control [2] was 28% and the kinase still bound, per cent of control (SIK2 (human)) was 82%. It also gave a kinase still bound, per cent of control (EPHB4 (human)) of 100%, a kinase still bound, per cent of control (TSSK1B (human)) of 64% and a kinase still bound, per cent of control (SGK110 (human)) of 97%. For the same molecule, the kinase still bound, per cent of control (NEK1 (human)) was 95%, the kinase still bound, per cent of control (DDR1 (human)) was 81% and the kinase still bound, per cent of control (MLTK (human)) was 100%. It also gave a kinase still bound, per cent of control (LCK (human)) of 28%, a kinase still bound, per cent of control (MARK2 (human)) of 100% and a kinase still bound, per cent of control [3] of 14%. The kinase still bound, per cent of control [4] was 50%, the kinase still bound, per cent of control (MST4 (human)) was 67% and the kinase still bound, per cent of control (CDC42BPA (human)) was 100%. The kinase still bound, per cent of control (MARK4 (human)) was 84%, the kinase still bound, per cent of control (FGFR2 (human)) was 87% and the kinase still bound, per cent of control (TLK2 (human)) was 100%. It also gave a kinase still bound, per cent of control (AKT3 (human)) of 100%, a kinase still bound, per cent of control (EPHA5 (human)) of 90% and a kinase still bound, per cent of control (TNK2 (human)) of 56%.
Work on `COc1cc(N2CCN(C)CC2)ccc1Nc1ncc2c(n1)N(C)c1ccccc1N(C)C2=O` yielded a kinase still bound, per cent of control (MAPK1 (human)) of 100%, a kinase still bound, per cent of control [1] of 100% and a kinase still bound, per cent of control (CSNK1A1L (human)) of 100%. The kinase still bound, per cent of control (ACVR1B (human)) was 100%, the kinase still bound, per cent of control (STK32C (human)) was 100% and the kinase still bound, per cent of control (TNNI3K (human)) was 100%. For the same molecule, the kinase still bound, per cent of control (STK38L (human)) was 100%, the kinase still bound, per cent of control (PRKX (human)) was 83% and the kinase still bound, per cent of control (STK36 (human)) was 88%. The kinase still bound, per cent of control (PRKG1 (human)) was 100%, the kinase still bound, per cent of control (CDK8 (human)) was 88% and the kinase still bound, per cent of control (ERBB2 (human)) was 6.6%. The kinase still bound, per cent of control (PRKD2 (human)) was 100%, the kinase still bound, per cent of control (MAPK9 (human)) was 87% and the kinase still bound, per cent of control (TESK1 (human)) was 76%. The kinase still bound, per cent of control (ANKK1 (human)) was 91%, the kinase still bound, per cent of control (MAP2K1 (human)) was 85% and the kinase still bound, per cent of control (MYLK2 (human)) was 100%. For the same molecule, the kinase still bound, per cent of control (FGFR1 (human)) was 100%, the kinase still bound, per cent of control (STK10 (human)) was 100% and the kinase still bound, per cent of control (MAP3K3 (human)) was 93%. The kinase still bound, per cent of control (PAK4 (human)) was 100%, the kinase still bound, per cent of control [2] was 43% and the kinase still bound, per cent of control (SIK2 (human)) was 89%. The kinase still bound, per cent of control (EPHB4 (human)) was 100%, the kinase still bound, per cent of control (TSSK1B (human)) was 53% and the kinase still bound, per cent of control (SGK110 (human)) was 52%. For the same molecule, the kinase still bound, per cent of control (NEK1 (human)) was 96%, the kinase still bound, per cent of control (DDR1 (human)) was 93% and the kinase still bound, per cent of control (MLTK (human)) was 100%. For the same molecule, the kinase still bound, per cent of control (LCK (human)) was 100%, the kinase still bound, per cent of control (MARK2 (human)) was 100% and the kinase still bound, per cent of control [3] was 100%. For the same molecule, the kinase still bound, per cent of control [4] was 53%, the kinase still bound, per cent of control (MST4 (human)) was 91% and the kinase still bound, per cent of control (CDC42BPA (human)) was 100%. It also gave a kinase still bound, per cent of control (MARK4 (human)) of 63%, a kinase still bound, per cent of control (FGFR2 (human)) of 100% and a kinase still bound, per cent of control (TLK2 (human)) of 96%. It also gave a kinase still bound, per cent of control (AKT3 (human)) of 100%, a kinase still bound, per cent of control (EPHA5 (human)) of 99% and a kinase still bound, per cent of control (TNK2 (human)) of 20%.
`COc1cc(N2CCN(C)CC2)ccc1Nc1ncc2c(n1)N(C)c1sccc1C(=O)N2C` was tested, and the kinase still bound, per cent of control (MAPK1 (human)) was 83%, the kinase still bound, per cent of control [1] was 66% and the kinase still bound, per cent of control (CSNK1A1L (human)) was 93%. The kinase still bound, per cent of control (ACVR1B (human)) was 86%, the kinase still bound, per cent of control (STK32C (human)) was 99% and the kinase still bound, per cent of control (TNNI3K (human)) was 84%. It also gave a kinase still bound, per cent of control (STK38L (human)) of 88%, a kinase still bound, per cent of control (PRKX (human)) of 82% and a kinase still bound, per cent of control (STK36 (human)) of 100%. The kinase still bound, per cent of control (PRKG1 (human)) was 100%, the kinase still bound, per cent of control (CDK8 (human)) was 100% and the kinase still bound, per cent of control (ERBB2 (human)) was 89%. It also gave a kinase still bound, per cent of control (PRKD2 (human)) of 9.2%, a kinase still bound, per cent of control (MAPK9 (human)) of 82% and a kinase still bound, per cent of control (TESK1 (human)) of 90%. For the same molecule, the kinase still bound, per cent of control (ANKK1 (human)) was 25%, the kinase still bound, per cent of control (MAP2K1 (human)) was 90% and the kinase still bound, per cent of control (MYLK2 (human)) was 90%. It also gave a kinase still bound, per cent of control (FGFR1 (human)) of 100%, a kinase still bound, per cent of control (STK10 (human)) of 100% and a kinase still bound, per cent of control (MAP3K3 (human)) of 72%. The kinase still bound, per cent of control (PAK4 (human)) was 84%, the kinase still bound, per cent of control [2] was 63% and the kinase still bound, per cent of control (SIK2 (human)) was 87%. For the same molecule, the kinase still bound, per cent of control (EPHB4 (human)) was 100%, the kinase still bound, per cent of control (TSSK1B (human)) was 38% and the kinase still bound, per cent of control (SGK110 (human)) was 55%. It also gave a kinase still bound, per cent of control (NEK1 (human)) of 77%, a kinase still bound, per cent of control (DDR1 (human)) of 100% and a kinase still bound, per cent of control (MLTK (human)) of 97%. It also gave a kinase still bound, per cent of control (LCK (human)) of 100%, a kinase still bound, per cent of control (MARK2 (human)) of 100% and a kinase still bound, per cent of control [3] of 90%. It also gave a kinase still bound, per cent of control [4] of 100%, a kinase still bound, per cent of control (MST4 (human)) of 70% and a kinase still bound, per cent of control (CDC42BPA (human)) of 98%. The kinase still bound, per cent of control (MARK4 (human)) was 59%, the kinase still bound, per cent of control (FGFR2 (human)) was 81% and the kinase still bound, per cent of control (TLK2 (human)) was 93%. The kinase still bound, per cent of control (AKT3 (human)) was 100%, the kinase still bound, per cent of control (EPHA5 (human)) was 80% and the kinase still bound, per cent of control (TNK2 (human)) was 25%.
